Assay results from patent US12448363B2, “Kinase inhibitors” (Vidya Therapeutics, Inc., priority 2020, dated 2025).

Key:
[1] = tested on: BTK Activity in RAMOS B Cells; assay: Assay to determine BTK activity in RAMOS B cells (anti-IgM, FLIPR Calcium 6); type: cell-based; details: Homo sapiens, Ramos, EC80 anti-IgM, FLIPR calcium read
Experimental: On the day before assay, Ramos B cells were plated in plating medium (RPMI1640 medium containing 1% FBS and 1× pencillin-streptomycin). On the day of the assay, 2× dye solution was prepared following the manual of the FLIRP Calcium 6 Assay Kit: Dilute the dye with assay buffer (20 mM HEPES in 1×HBSS, pH7.4); Add probenecid to the final concentration of 5 mM; vortex vigorously for 1-2 minutes. Cells were collected by centrifuging, and the pellet was resuspended in plating medium. After counting, cells were resuspended at a density of 3×10^6/ml in plating medium. Equal volume of 2× dye solution was added to the cell suspension. Cells were then plated at 20 μl/well into a 384-well poly-D-lysine coated plate. Plate was centrifuged at 1000 rpm for 3 minutes and then incubated at 37° C. for 2 hours followed by an additional 15-minute incubation at 25° C. Compounds were prepared at 3× concentration in dilution buffer (20 mM HEPES and 0.1% BSA in 1×HBSS, pH 7.4). Serially diluted compound was transferred from source plate to a 384-well compound plate by using an Echo 550 (Labcyte). 20 μl/well compound dilution buffer was added to the compound plate and mixed on plate shaker for 2 mins. 4×EC80 of Anti-IgM (Jackson ImmunoResearch) was prepared in dilution buffer and 20 μl/well was added to a new 384-well compound plate. After 60 mins of incubation at 25° C. in the dark; cell plate, compound plate containing 4×EC80 of anti-IgM and FLIPR tips were placed into FLIPR (Molecular Devices). 10 ul/well of 4×EC80 anti-IgM was transferred to the cell plate by FLIPR. Plates were read for 160 sec with 1 sec interval.
With respect to Ramos activity, Table 9 lists activity as follows: • “A” denotes an IC50 of less than 10 nM; • “B” denotes an IC50 of from 10 nM to less than 100 nM; and • “C” denotes and IC50 of 100 nM or more.

BTK [2] = target: T1, BTK (Homo sapiens, UniProt Q06187); assay: Assay to determine BTK inactivation rate in human whole blood (ELISA of unoccupied BTK); type: cell-based; design: Human whole blood is obtained from StemExpress; tissue StemExpress; host or cells: human whole blood; details: 37° C., 5, 15, 30, 60 minutes; for kinact/KI: read-out: BTK hWB Kinact/Ki
T1 sequence (Q06187 whole entry): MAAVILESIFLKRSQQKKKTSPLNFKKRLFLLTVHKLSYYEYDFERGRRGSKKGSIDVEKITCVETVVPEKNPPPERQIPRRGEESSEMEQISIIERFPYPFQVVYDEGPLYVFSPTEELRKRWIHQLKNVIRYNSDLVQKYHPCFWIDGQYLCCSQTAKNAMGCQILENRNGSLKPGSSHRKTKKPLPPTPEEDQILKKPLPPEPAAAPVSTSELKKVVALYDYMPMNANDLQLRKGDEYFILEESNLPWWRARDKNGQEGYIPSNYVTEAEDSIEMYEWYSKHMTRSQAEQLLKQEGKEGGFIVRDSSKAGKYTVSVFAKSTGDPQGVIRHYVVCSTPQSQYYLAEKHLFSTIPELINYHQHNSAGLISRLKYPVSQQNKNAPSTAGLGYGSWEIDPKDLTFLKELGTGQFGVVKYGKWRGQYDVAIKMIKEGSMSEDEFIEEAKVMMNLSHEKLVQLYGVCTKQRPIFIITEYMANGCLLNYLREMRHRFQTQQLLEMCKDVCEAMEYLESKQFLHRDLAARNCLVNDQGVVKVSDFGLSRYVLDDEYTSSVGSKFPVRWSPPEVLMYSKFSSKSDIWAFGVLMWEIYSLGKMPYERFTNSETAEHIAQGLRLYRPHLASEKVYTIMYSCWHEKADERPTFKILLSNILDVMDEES
Experimental: Human Whole Blood Compound Treatment and Lysis
Human whole blood is obtained from StemExpress and kept at ambient temperature until the time of the experiment. […] This is prepared fresh each experimental day. […] Compounds are reconstituted to stocks of 10 mM and are diluted in two-fold serial dilutions to generate an 8-point curve in DMSO, with the last point being DMSO only, creating a 100× dilution series. A working 10× dilution series is created using 1.0 μL of the prepared DMSO titration, 100×, into […] 1×PBS in order to keep the DMSO constant. The human whole blood is added in the volume of 225 μL per well in a new 96w v-bottom plate, where one column of eight wells is sufficient for testing one compound. For compound treatment, 25 μL of 10× dilution series in PBS is added to the 225 μL whole blood, followed by briefly pipetting up and down twice. The plates are covered with lids and incubated at 37° C. for 5, 15, 30, 60 minutes. At each timepoint, 30 μL of treated blood is pulled from each column and added to preloaded collection plates that contain 30 μL of supplemented lysis buffer and mixed briefly. The collected and lysed samples shake on rotator for 60 minutes at room temperature. These samples are used fresh for detection via ELISA, and remaining sample is frozen at −80° C. if a repeat is necessary.
ELISA: Determining Amount of Unoccupied BTK
All streptavidin pre-coated plates (R&D Systems, #CP004) are brought to room temperature while samples are lysing. Assay Buffer 1, 1×PBS+0.05% Tween 20+1% BSA is prepared and stored at 4° C. when not in use. Using this Assay Buffer, assay buffer+1× protease/phosphatase inhibitor cocktail (PICs) is prepared in the amount needed for all samples. Assay Buffer+PICs in the volume of 90 μL/well is added to the ELISA plate. Lysed blood sample (10 μL) is added to the ELISA plate. BTK recombinant protein dilutions are prepared in assay buffer+PICS for use as a μM). The standard is loaded into the ELISA plate at 100 μL/well, in duplicate. These samples and standards remain in the plate, sealed, overnight at 4° C. The following day, the plate is washed four times with 1× Wash Buffer (1×PBS+0.05% Tween 20) using a plate washer. The plate is inverted to expel all fluid each time and blotted on clean paper towels to remove remaining liquid. Assay Buffer 2 is prepared (1×PBS+0.05% Tween 20+0.05% BSA) and kept at 4° C. when not in use. […] Diluted a-BTK antibody is added at 100 μl/well. The plate is covered with adhesive film and incubated for 90 minutes at room temperature. The plate is washed four times with 1× Wash Buffer (1×PBS+0.05% Tween 20) using a plate washer. The plate is inverted to expel all fluid each time and blotted on clean paper towels to remove remaining liquid. […] The diluted antibody is added at 100 μl/well. The plate is covered with adhesive film and incubated for one hour at room temperature. The plate is washed four times with 1× Wash Buffer using a plate washer. The plate is inverted to expel all fluid each time and blotted on clean paper towels to remove remaining liquid. […] The plate is incubated at room temperature in the dark for −5-10 minutes. The reaction is stopped by adding 50 μl/well 2N sulfuric acid (H2SO4) (R&D Systems, #DY994). The plate is read in a plate reader at the wavelengths […] and 570 nm (correction wavelength). Using Graphpad Prism, an XY table+graph is created, listing 0-60 minutes as X axis and concentration as Y axis. A One Phase Decay model fit is applied to the data. Checking Results table, the K values are obtained and new XY table+graph are created. Concentration is assigned to the X axis and K values from first analysis are entered. The Michaelis-Menten equation is applied to the data.

BTK [3] = target: T1, BTK; assay: Assay to determine activity against BTK (EZ reader, FLPeptide); type: biochemical; design: purchased Carna; details: ATP (1 mM), BTK (2 nM), room temperature for 90 minutes
Experimental: Solutions of compounds (test or control) in DMSO were prepared at the desired concentrations, and serially diluted to 11 concentrations by 3-fold dilution in 384pp-plate using TECAN EVO200. 20 nL of stock were transferred to 384 plate using Echo550. DMSO was used as vehicle control.
Two separate solutions were prepared—an ATP solution containing MgCl2 (10 mM), Brij-35 (0.01%), DTT (2 mM), BSA (0.05%), EGTA (1 mM), HEPE (pH7.5) (50 mM), FLPeptide (6 uM) and ATP (4 mM); and a BTK solution containing MgCl2 (10 mM), Brij-35 (0.01%), DTT (2 mM), BSA (0.05%), EGTA (1 mM), HEPE (pH7.5) (50 mM) and BTK (2.67 nM). […] (Note the final volume of each well was 20 uL containing MgCl2 (10 mM), Brij-35 (0.01%), DTT (2 mM), BSA (0.05%), EGTA (1 mM), HEPE (pH7.5) (50 mM), FLPeptide (1.5 uM), ATP (1 mM) and BTK (2 nM).
The plates were incubated at room temperature for 90 minutes and then stopping buffer added (75 uL, containing 0.5 M EDTA) to terminate the reaction. Samples from each well were analyzed using EZ reader. The % remaining activity was calculated using read conversion ratio (CR) according to the equation: […]
XLFit (equation 201) was used to calculate IC50s by floating both bottom and top.
With respect to BTK activity, Table 4 lists activity as follows: • “A” denotes an IC50 of less than 10 nM, • “B” denotes an IC50 of from 10 nM to less than 100 nM; and • “C” denotes and IC50 of 100 nM or more.

[4] = Plasma and total brain concentrations at 1 h post a single oral administration to female C57BL/6 mice; type: in vivo; details: mouse, 1 h post single oral 10 mg/kg, LC-MS/MS, read-out: Brain:plasma ratio
Experimental: Determination of Plasma and Total Brain Concentrations at 1 h Post a Single Oral Administration of Test Compound to Female C57BL/6 Mice
The appropriate amount of test article was dissolved 10% dimethylacetamide (DMA)/90% (20% hydroxypropyl-b-cyclodextrin (HP-β-CD) w/v in water to obtain a final concentration of 1 mg/mL for oral dosing. Sonication, vortex, and homogenization was used as needed. Three female C57BL/6 mice aged 7-9 weeks (20-30 grams) were dosed by oral gavage 10 mg/kg solution of the test article.
Concentrations of representative test compounds in the plasma and brain samples (using plasma and brain homogenate standard curve for all samples appropriately) were analyzed using LC-MS/MS. With respect to the brain:plasma ratio, Table 11 lists the results as follows: • “A” denotes a ratio >0.5; • “B” denotes a ratio between 0.1 and 0.5; and • “C” denotes a ratio <0.1.

IC50 [1] [nM]	kinact/KI (BTK [2]) [M⁻¹ s⁻¹]	IC50 (BTK [3]) [nM]	Kp at 1 h [4]	BTK hWB Kinact/Ki (BTK [2])	SMILES
< 10	> 16700	< 10	–	–	C=CC(=O)N[C@H]1C[C@H](F)CN(c2c(F)cc(C(N)=O)c3[nH]c(C)c(C)c23)C1 [Compound 36, 4-((3S,5S)-3-acrylamido-5-fluoropiperidin-1-yl)-5-fluoro-2,3-dimethyl-1H-indole-7-carboxamide]
–	–	–	< 0.1	–	C=CC(=O)N1CCC[C@@H](n2nc(-c3ccc(Oc4ccccc4)cc3)c3c(N)ncnc32)C1 [Ibrutinib, reference compound]
–	< 1670	–	< 0.1	–	CC#CC(=O)N1CCC[C@H]1c1nc(-c2ccc(C(=O)Nc3ccccn3)cc2)c2c(N)nccn12 [Acalabrutinib, reference compound]
10 to 100	> 16700	10 to 100	–	–	C=CC(=O)N1CCC[C@H](c2c(F)c(F)c(C(N)=O)c3[nH]c(C)c(Cl)c23)C1 [Compound 15, (R)-4-(1-acryloylpiperidin-3-yl)-3-chloro-5,6-difluoro-2-methyl-1H-indole-7-carboxamide]
10 to 100	–	10 to 100	–	A (a Kinact/Ki >10×10^−4 nM^−1 min^−1)	C=CC(=O)N1CCC2CCN(c3c(F)cc(C(N)=O)c4[nH]c(C)c(C)c34)CC21 (single isomer, unassigned) [Compound 32a, 4-(1-acryloyloctahydro-6H-pyrrolo[2,3-c]pyridin-6-yl)-5-fluoro-2,3-dimethyl-1H-indole-7-carboxamide]
10 to 100	1670 to 16700	10 to 100	–	–	C=CC(=O)N1CCC[C@H](c2c(F)cc(C(N)=O)c3[nH]c(C)c(Cl)c23)C1 [Compound 2b, (R)-4-(1-acryloylpiperidin-3-yl)-3-chloro-5-fluoro-2-methyl-1H-indole-7-carboxamide]
–	> 16700	–	< 0.1	–	CC#CC(=O)N[C@H]1CCCN(c2c(F)cc(C(N)=O)c3[nH]c(C)c(C)c23)C1 [Branebrutinib, reference compound]
< 10	1670 to 16700	< 10	–	–	CC#CC(=O)N[C@H]1C[C@H](F)CN(c2c(F)cc(C(N)=O)c3[nH]c(C)c(Cl)c23)C1 [Compound 28, 4-((3S,5S)-3-(but-2-ynamido)-5-fluoropiperidin-1-yl)-3-chloro-5-fluoro-2-methyl-1H-indole-7-carboxamide]
10 to 100	< 1670	10 to 100	–	–	C=CC(=O)N1CCC2CCN(c3c(F)cc(C(N)=O)c4[nH]c(C)c(C)c34)CC21 (centres unmarked) [Compound 32, 4-(1-acryloyloctahydro-6H-pyrrolo[2,3-c]pyridin-6-yl)-5-fluoro-2,3-dimethyl-1H-indole-7-carboxamide]
< 10	< 1670	< 10	–	–	C=CC(=O)N1CCc2c(cccc2-c2c(F)cc(C(N)=O)c3[nH]c(C)c(Cl)c23)C1 [Compound 20a, 4-(2-acryloyl-1,2,3,4-tetrahydroisoquinolin-5-yl)-3-chloro-5-fluoro-2-methyl-1H-indole-7-carboxamide]
< 10	> 16700	< 10	–	–	C=CC(=O)N1CCC=C(c2c(F)c(F)c(C(N)=O)c3[nH]c(C)c(Cl)c23)C1 [Compound 4, 4-(1-acryloyl-1,2,5,6-tetrahydropyridin-3-yl)-3-chloro-5,6-difluoro-2-methyl-1H-indole-7-carboxamide]
